# Measurements reported in ChEMBL document CHEMBL6074656, “Biological evaluation of signal transducer and activator of transcription 3 (STAT3) targeting by phaeosphaeride A and its analogs” (Bioorg Med Chem Lett, 2024).
# How the values were obtained:
# MDA-MB-231 = experiment: Inhibition of cell growth in human MDA-MB-231 cells by MTT assay; assay type: functional, cell-based
# [1] = molecular target: Signal transducer and activator of transcription 3 (Homo sapiens, UniProt P40763); experiment: Inhibition of IL-6-induced STAT3 phosphorylation at Tyr705 in human HeLa cells by Western blot analysis; assay type: cell-based
# Signal transducer and activator of transcription 3, sequence (P40763 whole entry): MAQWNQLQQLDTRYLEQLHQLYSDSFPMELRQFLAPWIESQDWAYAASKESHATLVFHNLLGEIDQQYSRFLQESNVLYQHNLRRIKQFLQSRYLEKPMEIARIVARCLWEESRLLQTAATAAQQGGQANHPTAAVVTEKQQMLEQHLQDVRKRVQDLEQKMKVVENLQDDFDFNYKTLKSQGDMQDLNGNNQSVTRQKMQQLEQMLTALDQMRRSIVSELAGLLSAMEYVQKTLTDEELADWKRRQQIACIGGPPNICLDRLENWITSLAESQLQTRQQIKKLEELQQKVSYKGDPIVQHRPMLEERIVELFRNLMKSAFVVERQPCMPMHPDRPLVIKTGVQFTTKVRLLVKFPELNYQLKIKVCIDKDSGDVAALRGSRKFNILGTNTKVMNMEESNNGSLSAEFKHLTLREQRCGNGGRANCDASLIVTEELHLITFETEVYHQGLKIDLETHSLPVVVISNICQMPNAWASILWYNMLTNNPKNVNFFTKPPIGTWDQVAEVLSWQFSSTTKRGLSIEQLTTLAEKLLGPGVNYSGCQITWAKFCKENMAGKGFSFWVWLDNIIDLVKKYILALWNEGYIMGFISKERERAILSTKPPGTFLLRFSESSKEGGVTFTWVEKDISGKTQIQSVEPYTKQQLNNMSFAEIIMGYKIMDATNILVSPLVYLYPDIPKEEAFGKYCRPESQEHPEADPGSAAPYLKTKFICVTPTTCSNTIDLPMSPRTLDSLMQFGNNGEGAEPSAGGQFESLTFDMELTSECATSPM
# HeLa = experiment: Inhibition of cell growth in human HeLa cells by MTT assay; assay type: functional, cell-based
# U-266 = experiment: Antiproliferative activity against human U-266 cells; assay type: functional, cell-based
Compound,IC50 (MDA-MB-231),IC50 [1],IC50 (HeLa),inhibition ([1]; dose <= 100.0 µM),IC50 (U-266)
C=C1C2=C(C(=O)N1OC)[C@@H](O)[C@@](C)(O)[C@H](CCCCC)O2,24.2 µM,20.2 µM,8.4 µM,–,–
C=C1C2=C(C(=O)N1OC)[C@@H](O)[C@](C)(O)[C@@H](CCCCC)O2,8.9 µM,6.6 µM,4.2 µM,–,–
O=[N+]([O-])c1ccc2c(c1)S(=O)(=O)C=C2,3.4 µM,< 6.3 µM,0.57 µM,–,–
C=C1C2=C(C(=O)N1OC)[C@H](O)[C@@](C)(O)[C@H](CCCCC)O2,29.7 µM,13.5 µM,8.8 µM,Dose-dependent-effect,6.7 µM

# More lines, main results first:
IC50 (MDA-MB-231),IC50 [1],IC50 (HeLa),inhibition ([1]; dose <= 100.0 µM),Compound,IC50 (U-266)
> 50 µM,> 100 µM,> 50 µM,–,CCCCC[C@@H]1OC2=C(C(=O)N(OC)C2=O)[C@H](O)[C@@]1(C)O,–
16.2 µM,9.2 µM,4.2 µM,–,C=C1C2=C(C(=O)N1OC)[C@@H](O)[C@@](C)(O)[C@@H](CCCCC)O2,–
19.8 µM,7.3 µM,6.1 µM,–,C=C1C2=C(C(=O)N1OC)[C@H](O)[C@@](C)(O)[C@@H](CCCCC)O2,–
